Counter-ions that a name gives are not always drawn.
What was measured:
Beagle-Hunde = test: Blood pressure, heart rate and left ventricular dp/dt in the anaesthetised beagle dog, i.v. administration; assay type: in vivo; settings: Hund; for Blutdruckabfall: Natriumpentobarbital; for % Zunahme in dp/dt max: left ventricle
Procedure: 2. Blutdruck am Hund: Methode: Beagle-Hunde beiderlei Geschlechts (Gewicht im Bereich 10 bis 15 kg) wurden mit Natriumpentobarbital narkotisiert (35 mg/kg, i.v.). Nach Einführung eines Endotrachealrohrs wurden sowohl die Oberschenkelarterie als auch die -vene zur Aufnahme des Blutdrucks und zur Verabreichung der Verbindung kanüliert. Der Druck im linken Ventrikel wurde mit einem Katheterspitzen-Messwandler (Millar-Kathether) gemessen und über einen Hugo Sachs-Differentiator differenziert. Sämtliche Methoden wurden auf einem Hellige-Schreibgerät mit sechs Kanälen aufgezeichnet. Die Elektrokardiogrammsignale wurden auf einem Becton-Dickinson-Gerät verfolgt.
Eine einprozentige Lösung der erfindungsgemäßen Verbindung in destilliertem Wasser wurde hergestellt und in verschiedenen Dosierungen intravenös verabreicht.

Katzen = test: Blood pressure in the anaesthetised cat (femoral artery), i.v. administration; assay type: in vivo; settings: Katze, Dosis 3 mg/kg
Procedure: 1. Blutdruck an der Katze: Katzen beiderlei Geschlechts von 3 bis 4 kg Gewicht wurden mit Äther narkotisiert und unter Chloralose-Narkose (70 mg/kg, i.v.) gehalten. Sowohl die Oberschenkelarterie als auch -vene wurden zur Aufzeichnung des Blutdrucks und zur Verabreichung von Medikamenten kanüliert. Der Blutdruck in der Oberschenkelarterie wurde über einen Messwandler Statham 23 Db auf einem physiologischen Nihon-Kohden-Registriergerät aufgezeichnet. Die zu prüfende Verbindung wurde in destilliertem Wasser gelöst und intravenös verabreicht, und der Blutdruckabfall und die Dauer der blutdrucksenkenden Wirkung wurden notiert.
Die mit diesem Modell für typische erfindungsgemäße Verbindungen erhaltenen Resultate sind in der nachfolgenden Tabelle angegeben: […]

C=CC1(C)CC(=O)C2(O)C(C)(O1)C(OC(=O)CC)C(OC(=O)CN1CCCCC1)C1C(C)(C)CCC(O)C12C (stereo not drawn) [C2H5, 1α,9α-Dihydroxy-8,13-epoxy-6ß-piperidino acetoxy-7ß-propionyloxy-labd-14-en-11-on hydrochlorid]
Dauer (Beagle-Hunde; Dosis 0.3 mg/kg): 10 min | Dauer (Beagle-Hunde; Dosis 1.0 mg/kg): 60 min | Pulszunahme (Beagle-Hunde; Dosis 1.0 mg/kg): +19 Pulsschläge pro Min. | Blutdruckabfall (Beagle-Hunde; Dosis 0.3 mg/kg): 10 mm Hg | Blutdruckabfall (Beagle-Hunde; Dosis 1.0 mg/kg): 46 mm Hg | % Zunahme in dp/dt max (Beagle-Hunde; Dosis 0.3 mg/kg): +38% | % Zunahme in dp/dt max (Beagle-Hunde; Dosis 1.0 mg/kg): +65% | Blutdruckabfall (Katzen; Chloralose-Narkose): 30 mm Hg | Dauer (Katzen; duration of hypotensive effect): > 120 min

From patent EP0252482A2, “7-Acyloxy-6-aminoacyloxypolyoxylabdanes, process for their preparation and their use as medicine” (HOECHST AKTIENGESELLSCHAFT, priority 1986, dated 1988)
